Results taken from patent US6352958B1, “Cycloimido-substituted benzofused heterocyclic herbicides” (FMC Corporation, priority 1997, dated 2002).

Columns and labels:
Assay type in all cases: in vivo
[1] = test system: green foxtail (Setaria viridis); assay: Postemergence herbicidal activity, green foxtail; details: rate of application 0.3 Kg/Ha, rated after 12-17 days
[2] = test system: velvetleaf (Abutilon theophrasti); assay: Preemergence herbicidal activity, velvetleaf; details: Rate of Application 0.3 Kg/Ha, examined after 12-17 days
[3] = test system: wheat (Triticum aestivum var. Lew); assay: Postemergence herbicidal activity, wheat; details: rate of application 0.3 Kg/Ha, rated after 12-17 days
[4] = test system: soybean (Glycine max var. Winchester); assay: Preemergence herbicidal activity, soybean; details: Rate of Application 0.3 Kg/Ha, examined after 12-17 days
[5] = test system: common cocklebur (Xanthium strumarium L.); assay: Postemergence herbicidal activity, cocklebur; details: rate of application 0.3 Kg/Ha, rated after 12-17 days
[6] = test system: field corn (Zea mays var. Pioneer 3732); assay: Preemergence herbicidal activity, corn; details: Rate of Application 0.3 Kg/Ha, examined after 12-17 days
[7] = test system: field corn (Zea mays var. Pioneer 3732); assay: Postemergence herbicidal activity, corn; details: rate of application 0.3 Kg/Ha, rated after 12-17 days
[8] = test system: soybean (Glycine max var. Winchester); assay: Postemergence herbicidal activity, soybean; details: rate of application 0.3 Kg/Ha, rated after 12-17 days
[9] = test system: velvetleaf (Abutilon theophrasti); assay: Postemergence herbicidal activity, velvetleaf; details: rate of application 0.3 Kg/Ha, rated after 12-17 days
[10] = test system: Johnsongrass (Sorghum halepense); assay: Preemergence herbicidal activity, johnsongrass; details: Rate of Application 0.3 Kg/Ha, examined after 12-17 days
[11] = test system: Johnsongrass (Sorghum halepense); assay: Postemergence herbicidal activity, johnsongrass; details: rate of application 0.3 Kg/Ha, rated after 12-17 days
[12] = test system: blackgrass (Aloepecurus myosuroides); assay: Preemergence herbicidal activity, blackgrass; details: Rate of Application 0.3 Kg/Ha, examined after 12-17 days
Description: The benzofused heterocyclic compounds of this invention were tested for pre- and postemergence herbicidal activity using a variety of crops and weeds. The test plants included soybean (Glycine max var. Winchester), field corn (Zea mays var. Pioneer 3732), wheat (Triticum aestivum var. Lew), morningglory (Ipomea lacunosa or Ipomea hederacea), velvetleaf (Abutilon theophrasti), green foxtail (Setaria viridis), Johnsongrass (Sorghum halepense), blackgrass (Aloepecurus myosuroides), common chickweed (Stellaria media), and common cocklebur (Xanthium strumarium L.).
For preemergence testing, two disposable fiber flats (8 cm×15 cm×25 cm) for each rate of application of each candidate herbicide were filled to an approximate depth of 6.5 cm with steam-sterilized sandy loam soil. The soil was leveled and impressed with a template to provide five evenly spaced furrows 13 cm long and 0.5 cm deep in each flat. Seeds of soybean, wheat, corn, green foxtail, and johnsongrass were planted in the furrows of the first flat, and seeds of velvetleaf, morningglory, common chickweed, cocklebur, and blackgrass were planted in the furrows of the second flat. The five-row template was employed to firmly press the seeds into place. A topping soil of equal portions of sand and sandy loam soil was placed uniformly on top of each flat to a depth of approximately 0.5 cm. Flats for postemergence testing were prepared in the same manner except that they were planted 9-14 days prior to the preemergence flats and were placed in a greenhouse and watered, thus allowing the seeds to germinate and the foliage to develop.
In both pre- and postemergence tests, a stock solution of the candidate herbicide was prepared by dissolving 0.27 g of the compound in 20 mL of water/acetone (50/50) containing 0.5% v/v sorbitan monolaurate. For an application rate of 3000 g/ha of herbicide a 10 mL portion of the stock solution was diluted with water/acetone (50/50) to 45 mL.
The preemergence flats were initially subjected to a light water spray. The four flats were placed two by two along a conveyor belt (i.e., the two preemergence followed by the two postemergence flats). The conveyor belt fed under a spray nozzle mounted about ten inches above the post-emergent foliage. The preemergent flats were elevated on the belt so that the soil surface was at the same level below the spray nozzle as the foliage canopy of the postemergent plants. The spray of herbicidal solution was commenced and once stabilized, the flats were passed under the spray at a speed to receive a coverage equivalent of 100 L/ha. At this coverage the application rates are those shown in the above table for the individual herbicidal solutions. The preemergence flats were watered immediately thereafter, placed in the greenhouse and watered regularly at the soil surface. The postemergence flats were immediately placed in the green-house and not watered until 24 hours after treatment with the test solution. Thereafter they were regularly watered at ground level. After 12-17 days the plants were examined and the phytotoxicity data were recorded.
Phytotoxicity data were taken as percent control. Percent control was determined by a method similar to the 0 to 100 rating system disclosed in “Research Methods in Weed Science,” 2nd ed., B. Truelove, Ed.; Southern Weed Science Society; Auburn University, Auburn, Ala., 1977.

[13] = test system: wheat (Triticum aestivum var. Lew); assay: Preemergence herbicidal activity, wheat; details: Rate of Application 0.3 Kg/Ha, examined after 12-17 days
[14] = test system: common chickweed (Stellaria media); assay: Postemergence herbicidal activity, chickweed; details: rate of application 0.3 Kg/Ha, rated after 12-17 days
[15] = test system: common chickweed (Stellaria media); assay: Preemergence herbicidal activity, chickweed; details: Rate of Application 0.3 Kg/Ha, examined after 12-17 days
[16] = test system: morningglory (Ipomea lacunosa or Ipomea hederacea); assay: Postemergence herbicidal activity, morningglory; details: rate of application 0.3 Kg/Ha, rated after 12-17 days
[17] = test system: green foxtail (Setaria viridis); assay: Preemergence herbicidal activity, green foxtail; details: Rate of Application 0.3 Kg/Ha, examined after 12-17 days
[18] = test system: morningglory (Ipomea lacunosa or Ipomea hederacea); assay: Preemergence herbicidal activity, morningglory; details: Rate of Application 0.3 Kg/Ha, examined after 12-17 days
[19] = test system: common cocklebur (Xanthium strumarium L.); assay: Preemergence herbicidal activity, cocklebur; details: Rate of Application 0.3 Kg/Ha, examined after 12-17 days

Compound	Postemergence herbicidal activity (% control) SETVI [1]	PREEMERGENCE HERBICIDAL ACTIVITY (% CONTROL) ABUTH [2]	Postemergence herbicidal activity (% control) WHT [3]	PREEMERGENCE HERBICIDAL ACTIVITY (% CONTROL) SOY [4]	Postemergence herbicidal activity (% control) XANPE [5]	PREEMERGENCE HERBICIDAL ACTIVITY (% CONTROL) CRN [6]	Postemergence herbicidal activity (% control) CRN [7]	Postemergence herbicidal activity (% control) SOY [8]	Postemergence herbicidal activity (% control) ABUTH [9]	PREEMERGENCE HERBICIDAL ACTIVITY (% CONTROL) SORHA [10]	Postemergence herbicidal activity (% control) SORHA [11]	PREEMERGENCE HERBICIDAL ACTIVITY (% CONTROL) ALOMY [12]	PREEMERGENCE HERBICIDAL ACTIVITY (% CONTROL) WHT [13]	Postemergence herbicidal activity (% control) STEME [14]	PREEMERGENCE HERBICIDAL ACTIVITY (% CONTROL) STEME [15]	Postemergence herbicidal activity (% control) IPOSS [16]	PREEMERGENCE HERBICIDAL ACTIVITY (% CONTROL) SETVI [17]	PREEMERGENCE HERBICIDAL ACTIVITY (% CONTROL) IPOSS [18]	PREEMERGENCE HERBICIDAL ACTIVITY (% CONTROL) XANPE [19]
CC(=O)Nc1nc2c(-n3c(=O)cc(C(F)(F)F)n(C)c3=O)c(F)cc(Br)c2o1 [Compound 43]	50%	100%	30%	50%	50%	80%	70%	80%	100%	80%	50%	60%	40%	70%	10%	100%	70%	100%	–
COCc1nc2c(-n3c(=O)cc(C(F)(F)F)n(C)c3=O)c(F)cc(Br)c2o1 [Compound 96]	100%	100%	90%	100%	100%	95%	90%	100%	100%	95%	100%	90%	90%	100%	100%	100%	100%	100%	–
Cn1c(C(F)(F)F)cc(=O)n(-c2c(F)cc(Br)c3oc(COc4ccccc4)nc23)c1=O [Compound 99]	70%	100%	40%	40%	70%	60%	80%	80%	100%	65%	65%	60%	50%	95%	100%	100%	100%	100%	–
CC(=O)N(C(C)=O)c1nc2c(-n3c(=O)cc(C(F)(F)F)n(C)c3=O)c(F)cc(Br)c2o1 [Compound 100]	30%	100%	40%	40%	50%	80%	60%	85%	90%	70%	40%	60%	30%	50%	20%	100%	50%	100%	–
CC(=O)OC(C)c1cc2c(Cl)cc(F)c(-n3c(=O)cc(C(F)(F)F)n(C)c3=O)c2o1 (centres unmarked) [Compound 246]	100%	100%	100%	100%	100%	100%	100%	95%	100%	100%	100%	100%	100%	100%	100%	100%	100%	100%	100%
CC(OC(=O)c1ccccc1)c1cc2c(Cl)cc(F)c(-n3c(=O)cc(C(F)(F)F)n(C)c3=O)c2o1 (centres unmarked) [Compound 248]	100%	100%	50%	100%	100%	95%	95%	80%	100%	100%	100%	95%	90%	100%	100%	100%	100%	100%	100%
CN(C)C(=O)c1cc2c(Cl)ccc(-n3c(=O)cc(C(F)(F)F)n(C)c3=O)c2o1 [Compound 271]	70%	100%	40%	80%	–	90%	60%	80%	100%	90%	50%	80%	70%	100%	100%	100%	100%	100%	100%
